Results on two molecules are retold here after patent US20100009906A1, “Anticancer Treatments” (PHARMA MAR, S.A., priority 2006, published 2010).

Broadly, the clearance is a measure of how efficiently the substance is removed, as volume per time.

Series [1] in a line: Pharmacokinetics of trabectedin and docetaxel following coadministration in patients with advanced malignancies. The series is classed as in vivo, human. To be noted: for CL / Vss / clearance / Vd: mean (SD); for Vd: read-out: Vss. As for the experimental part:
FIG. 2 and FIG. 3. Pharmacokinetic parameters of trabectedin and docetaxel following coadministration in patients with advanced malignancies.
A phase I trial combining docetaxel and trabectedin was performed. The objective of this study was to determine the maximum tolerated dose (MTD) of trabectedin in combination with docetaxel (60 mg/m^2 or 75 mg/m^2) administered every 21 days. Additional objectives were to evaluate the safety profile of this combination of drugs and to evaluate the pharmacokinetics of trabectedin and docetaxel when given in combination. The maximum tolerated dose (MTD) relates to the highest dose at which less than one third of the subjects in a dose-level cohort experienced dose-limiting toxicity (DLT).
We designed a dose finding trial with a fixed docetaxel dose of 60 mg/m^2 or 75 mg/m^2 administered intravenously over one hour, followed by one of six trabectedin doses (0.4, 0.6, 0.75, 0.9, 1.1, and 1.3 mg/m^2) administered intravenously over 3 hours, with one hour of rest between the administration of docetaxel and ET-743. This treatment was repeated every 21 days. […] Restricted patients received ≦1 prior chemotherapy regimen whereas unrestricted patients had no limit. In addition, protocol amendment after dose level 2a allowed administration of primary prophylactic G-CSF.

Series [2] concerns human tumour xenografts (melanoma, ovarian and breast carcinoma). Conditions: athymic mice; cited from earlier work.
Series [3] concerns patients with sarcoma, breast and ovarian carcinoma. To be noted: cited from earlier work.
Where [4] appears, read: trabectedin 400 μg/m^2 (n = 6) coadministered with 60 mg/m^2 of docetaxel.
Where [5] appears, read: trabectedin 600 μg/m^2 (n = 3) coadministered with 60 mg/m^2 of docetaxel.
The mark [6] stands for this setting: human, in vivo, intravenous, docetaxel 60 mg/m^2 coadministered with trabectedin 400 μg/m^2 (n = 6).
The mark [7] stands for this setting: human, in vivo, intravenous, docetaxel 60 mg/m^2 coadministered with trabectedin 600 μg/m^2 (n = 4).

Like-named read-outs stand apart in the source and are kept apart here.

Regarding `COc1cc2c(cc1O)CCN[C@]21CS[C@@H]2c3c(OC(C)=O)c(C)c4c(c3[C@H](COC1=O)N1[C@@H]2[C@H]2c3c(cc(C)c(OC)c3O)C[C@@H]([C@@H]1O)N2C)OCO4` [Trabectedin, Ecteinascidin 743], the CL in series [1] (setting [4]) was 127 (61) L/h; in series [1] (setting [5]) it was 101 (46) L/h. The Vss is reported as 1179 (1402) L in series [1] (setting [4]) and 2754 (1946) L in series [1] (setting [5]). Moreover, the “Terminal t1/2” value in series [1] (trabectedin 400 μg/m^2 (n = 6) coadministered with 60 mg/m^2 of docetaxel, median (range)) is 11.4 (3.3-100) h; in series [1] (trabectedin 600 μg/m^2 (n = 3) coadministered with 60 mg/m^2 of docetaxel, median (range)), 37.5 (11.7-98.8) h. Further, the “Anticancer activity against human tumour xenografts” value in series [2] is reported as “potent anticancer activity”. Besides, the Responses in patients entry in series [3] is listed as “Promising ET-743 responses”.

For the molecule `CC(=O)O[C@@]12CO[C@@H]1C[C@H](O)[C@@]1(C)C(=O)[C@H](O)C3=C(C)[C@@H](OC(=O)[C@H](O)[C@@H](NC(=O)OC(C)(C)C)c4ccccc4)C[C@@](O)([C@@H](OC(=O)c4ccccc4)[C@H]21)C3(C)C` [Docetaxel, (2R,3S)-N-carboxy-3-phenylisoserine, N-tert-butyl ester, 13-ester with 5β-20-epoxy-1,2α,4,7β,10β, 13α-hexahydroxytax-11-en-9-one 4-acetate 2-benzoate, trihydrate], the “Terminal t1/2” value in series [1] (docetaxel 60 mg/m^2 coadministered with trabectedin 400 μg/m^2 (n = 6), median (range)) is on record as 19.9 (6.7-23) h. Further, in series [1] (setting [6]), the clearance was 815 mL/min and the Vd worked out at 405 L. In addition, in series [1] (setting [7]), the clearance is 797 mL/min and the Vd turned out to be 900 L. The half-life in series [1] (human, in vivo, intravenous, docetaxel 60 mg/m^2 coadministered with trabectedin 600 μg/m^2 (n = 4), median (range), read-out: Terminal t1/2 (converted)) is 38.2 h. Further, the “Impact of concomitant administration of trabectedin on the pharmacokinetics of docetaxel” value in series [1] (patients with advanced malignancies) is recorded as “not adversely impacted”.
